Values joined by “and” are separate entries in the source; they are usually repeats but may differ in a detail not shown here. Equal entries are not always repeated.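 Grown in 96-well plates, cells were treated for 48 hours with each compound at five concentrations. Insufficient inhibition: endpoint recorded as highest concentration tested. Here, GI50 denotes the concentration required for 50% inhibition of growth.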 Active and inactive are the calls of the source. Cut-off read from the data, not from the text of the source: active = GI50 up to about 1.1 µM and inactive = higher.
What was measured:
Assay in all cases: inhibition of tumour cell growth, NCI panel, 48 h
[1] = test system: 786-0
[2] = test system: SF-539
[3] = test system: HCT-116
[4] = test system: RXF 631
[5] = test system: NCI-H522
[6] = test system: HOP-92
[7] = test system: HCC 2998
[8] = test system: HL-60
[9] = test system: A549
[10] = test system: OVCAR-5
[11] = test system: DLD-1
[12] = test system: RPMI-8226
[13] = test system: UACC-257
[14] = test system: SF-268
[15] = test system: OVCAR-4
[16] = test system: M14
[17] = test system: SK-MEL-2
[18] = test system: COLO 205
[19] = test system: Malme-3M
[20] = test system: TK-10
[21] = test system: EKVX
[22] = test system: HCT-15
[23] = test system: DMS-114
[24] = test system: KM-20L2
[25] = test system: HOP-18
[26] = test system: K562
[27] = test system: HT-29
[28] = test system: SK-MEL-28
[29] = test system: SR
[30] = test system: OVCAR-8
[31] = test system: SNB-19
[32] = test system: SF-295
[33] = test system: NCI-H23
[34] = test system: NCI-H226
[35] = test system: M19-MEL
[36] = test system: SN12C
[37] = test system: SNB-75
[38] = test system: UO-31
[39] = test system: NCI-H460
[40] = test system: RXF 393
[41] = test system: CCRF-CEM
[42] = test system: SW-620
[43] = test system: A498
[44] = test system: OVCAR-3
[45] = test system: HOP-62
[46] = test system: U-251
[47] = test system: LOX IMVI
[48] = test system: KM12
[49] = test system: ACHN
[50] = test system: SK-OV-3
[51] = test system: IGROV-1
[52] = test system: SNB-78
[53] = test system: LXFL 529
[54] = test system: MOLT-4
[55] = test system: UACC-62
[56] = test system: CAKI-1
[57] = test system: DMS-273
[58] = test system: SK-MEL-5
[59] = test system: XF498

In the case of `O=C(COc1ccccc1)NS(=O)(=O)c1ccccc1`, the GI50 [1] was > 100 µM (inactive), the GI50 [2] was > 100 µM (inactive) and the GI50 [3] was > 100 µM (inactive). For the same molecule, the GI50 [4] was > 100 µM (inactive), the GI50 [5] was > 100 µM (inactive) and the GI50 [6] was > 100 µM (inactive). For the same molecule, the GI50 [7] was > 100 µM (inactive), the GI50 [8] was > 100 µM (inactive) and the GI50 [9] was > 100 µM (inactive). The GI50 [10] was > 100 µM (inactive), the GI50 [11] was > 100 µM (inactive) and the GI50 [12] was > 100 µM (inactive). For the same molecule, the GI50 [13] was > 100 µM (inactive), the GI50 [14] was > 100 µM (inactive) and the GI50 [15] was > 100 µM (inactive). For the same molecule, the GI50 [16] was > 100 µM (inactive), the GI50 [17] was > 100 µM (inactive) and the GI50 [18] was > 100 µM (inactive). For the same molecule, the GI50 [19] was > 100 µM (inactive), the GI50 [20] was > 100 µM (inactive) and the GI50 [21] was > 100 µM (inactive). The GI50 [22] was > 100 µM, the GI50 [23] was > 100 µM (inactive) and the GI50 [24] was > 100 µM (inactive). The GI50 [25] was > 100 µM (inactive), the GI50 [26] was > 100 µM (inactive) and the GI50 [27] was > 100 µM (inactive). For the same molecule, the GI50 [28] was > 100 µM (inactive), the GI50 [29] was > 100 µM (inactive) and the GI50 [30] was > 100 µM (inactive). For the same molecule, the GI50 [31] was > 100 µM (inactive), the GI50 [32] was > 100 µM (inactive) and the GI50 [33] was > 100 µM (inactive). For the same molecule, the GI50 [34] was > 100 µM (inactive), the GI50 [35] was > 100 µM (inactive) and the GI50 [36] was > 100 µM (inactive). For the same molecule, the GI50 [37] was > 100 µM (inactive), the GI50 [38] was > 100 µM (inactive) and the GI50 [39] was > 100 µM (inactive). For the same molecule, the GI50 [40] was > 100 µM (inactive), the GI50 [41] was > 100 µM (inactive) and the GI50 [42] was > 100 µM (inactive). For the same molecule, the GI50 [43] was > 100 µM (inactive), the GI50 [44] was > 100 µM (inactive) and the GI50 [45] was > 100 µM (inactive). For the same molecule, the GI50 [46] was > 100 µM (inactive), the GI50 [47] was > 100 µM (inactive) and the GI50 [48] was > 100 µM (inactive). For the same molecule, the GI50 [49] was > 100 µM (inactive), the GI50 [50] was > 100 µM (inactive) and the GI50 [51] was > 100 µM (inactive). For the same molecule, the GI50 [52] was > 100 µM (inactive), the GI50 [53] was > 100 µM (inactive) and the GI50 [54] was > 100 µM (inactive). The GI50 [55] was > 100 µM (inactive) and the GI50 [56] was > 100 µM (inactive).
`CC(=O)OCC1OC(n2c(=S)n(-c3ccccc3)c(=S)c3ccccc32)C(OC(C)=O)C(OC(C)=O)C1OC(C)=O` (configuration not stated) was tested, and the GI50 [1] was > 80.9 µM (inactive) and 62.8 µM (inactive), the GI50 [2] was 43.9 µM (inactive) and 48.5 µM (inactive) and the GI50 [3] was > 89.1 µM (inactive) and 57 µM (inactive). For the same molecule, the GI50 [4] was > 57.3 µM (inactive) and 71.4 µM (inactive), the GI50 [6] was > 37.7 µM (inactive) and 41.1 µM (inactive) and the GI50 [20] was 16.9 µM (inactive). For the same molecule, the GI50 [25] was 6.87 µM (inactive).
`CC(=O)NNc1nc(C)c(C(/C=C/c2ccc(Cl)cc2)=N\N=C(N)N)s1` was tested, and the GI50 [1] was > 100 µM (inactive), the GI50 [2] was > 100 µM (inactive) and the GI50 [3] was > 100 µM (inactive). The GI50 [4] was > 100 µM (inactive), the GI50 [5] was > 100 µM (inactive) and the GI50 [6] was > 100 µM (inactive). For the same molecule, the GI50 [7] was > 100 µM (inactive), the GI50 [8] was > 100 µM (inactive) and the GI50 [9] was > 100 µM (inactive). The GI50 [10] was > 100 µM (inactive), the GI50 [11] was > 100 µM (inactive) and the GI50 [12] was > 100 µM (inactive). For the same molecule, the GI50 [13] was > 100 µM (inactive), the GI50 [14] was > 100 µM (inactive) and the GI50 [15] was > 100 µM (inactive). For the same molecule, the GI50 [16] was 82.6 µM (inactive), the GI50 [18] was > 100 µM (inactive) and the GI50 [57] was > 100 µM (inactive). For the same molecule, the GI50 [19] was > 100 µM (inactive), the GI50 [20] was > 100 µM (inactive) and the GI50 [22] was > 100 µM. For the same molecule, the GI50 [24] was > 100 µM (inactive), the GI50 [26] was > 100 µM (inactive) and the GI50 [27] was > 100 µM (inactive). The GI50 [28] was > 100 µM (inactive), the GI50 [29] was > 100 µM (inactive) and the GI50 [30] was > 100 µM (inactive). The GI50 [31] was > 100 µM (inactive), the GI50 [32] was > 100 µM (inactive) and the GI50 [33] was > 100 µM (inactive). For the same molecule, the GI50 [34] was > 100 µM (inactive), the GI50 [35] was > 100 µM (inactive) and the GI50 [36] was > 100 µM (inactive). For the same molecule, the GI50 [37] was > 100 µM (inactive), the GI50 [38] was > 100 µM (inactive) and the GI50 [39] was > 100 µM (inactive). The GI50 [40] was > 100 µM (inactive), the GI50 [41] was > 100 µM (inactive) and the GI50 [42] was > 100 µM (inactive). The GI50 [44] was > 100 µM (inactive), the GI50 [45] was > 100 µM (inactive) and the GI50 [46] was > 100 µM (inactive). For the same molecule, the GI50 [47] was > 100 µM (inactive), the GI50 [48] was > 100 µM (inactive) and the GI50 [58] was > 100 µM (inactive). The GI50 [49] was > 100 µM (inactive), the GI50 [50] was > 100 µM (inactive) and the GI50 [51] was > 100 µM (inactive). The GI50 [52] was > 100 µM (inactive), the GI50 [53] was > 100 µM (inactive) and the GI50 [54] was > 100 µM (inactive). The GI50 [55] was > 100 µM (inactive), the GI50 [56] was > 100 µM (inactive) and the GI50 [59] was > 100 µM (inactive).
